Experimental findings from US20220072101A1, “HARNESSING INFLAMMATION TO TREAT NEURODEVELOPMENTAL DISORDERS” (President and Fellows of Harvard College, priority 2019, published 2022) are described below.

Entries after “also recorded” stand apart in the source; their conditions may differ.

What all share (type): in vivo, mouse
Experiment [1] has as its system layer 2/3 pyramidal neurons in S1DZ. Briefly: Whole-cell patch clamp recordings in brain slices of Veh- or LPS-injected MIA offspring. The note with it: S1DZ pyramidal neurons from LPS-injected MIA offspring. Background: Patch clamp records ionic current or voltage across a cell membrane.
The subject of experiment [2] is Cntnap2, Fmr1, and Shank3 mutant mice. Briefly: Three-chamber social approach assay in monogenic mutant mice. Particulars: Cntnap2, Fmr1 and Shank3 mutant mice; LPS i.p.; 4 hours. As to the method: All experiments were performed according to Guide for the Care and Use of Laboratory Animals and were approved by the National Institutes of Health and the Committee on Animal Care at Massachusetts Institute of Technology. C57BL/6 were purchased from Taconic Biosciences for generating PBS and MIA offspring. Vgat-Cre (028862) were purchased from Jackson Laboratories and inbred. For monogenic experiments, C57BL/6, Cntnap2 (017482), Fmr1 (003025), and Shank3 (017688) mice were purchased from Jackson Laboratories and inbred after colonizing with SFB from donor mice. IL-17Ra^fl/fl and IL-17RaKO were previously described^24,25. All mice were males aged 2-5 months, unless otherwise specified.
Adult male mice were assayed for sociability using a three-chamber social approach assay. The arena was constructed of white acrylic (50 cm×35 cm×30 cm). Wire cups (Spectrum Diversified®) were placed in the back left and right corner of the arena beneath water-filled 1 L bottles (Nalgene®). On day 0, mice were habituated to the arena for 10 min. Immediately following habituation, mice were singly housed. On day 1 (Pre), mice were placed in the center of the arena and allowed to freely explore. Following 10 min, mice were confined to the center of the arena. An inanimate object (rubber stopper) or a male conspecific were placed beneath the wire cups. Placement of the inanimate object and social target were alternated. Mice were then allowed to freely explore the arena for 10 min. Interaction time was defined as time spent in the areas circumscribing the wire cups (<2 cm). Sociability was defined as interaction time with the social target divided by total interaction time and expressed as a percentage. For experiments involving LPS injections, mice were injected with either saline (Veh) or LPS ([…], i.p., L2630, Sigma) on day 2 (Test), four hours prior to testing. For the experiment assaying sociability 72 hrs following LPS injection, mice used for 4 hr LPS sociability experiments were tested for sociability again at 72 hrs. […]

The next experiment deals with IL-17a, IFNγ, IL-6, TNFα. Briefly: ELISA of cytokines in plasma and brain lysate. The procedure: Mice were put under general anesthesia by intraperitoneal injection of Ketamine (100 mg/kg, i.p.) and xylazine (10 mg/kg, i.p.). Blood was collected by retro-orbital puncture, using clean heparinized microhematocrit capillary tubes (Fisher Scientific®). Once the tube was withdrawn, slight pressure was applied on the eyelid with gauze to prevent further bleeding. All blood samples were centrifuged at 15,000 g for 3 min at room temperature. For quantification of cytokines in brain lysate, samples were disrupted in cold lysis buffer with protease inhibitor cocktail for 60 seconds using the Micro-Homogenizer (VWR International) and centrifuged for 30 min at 15,000×g to remove insoluble precipitates. All samples were stored at −80° C. until further analysis. Plasma and brain lysate cytokines concentrations were measured using an ELISA kit (Biolgened™), following the manufacturer's instructions.
After four hours of vehicle or LPS administration, mice were anesthetized by intraperitoneal injection of fatal plus (100 mg/kg). All blood samples were centrifuged at 10,000 g for 10 min at 4 C. All samples were stored at −80° C. until further analysis. Cytokines concentrations in plasma were measured using an ELISA kit (IFN-γ; 430804, TNF-α; 430904, IL-6; 431304, IL-17a; 432504, Biolegend®), following the manufacturer's instructions.
On the technique in general: In an ELISA, binding on a coated surface is turned into a signal by an enzyme label.

For the substance lipopolysaccharide [LPS], the “spiking in response to depolarizing current injections” value in experiment [1] is recorded as “reduced spiking in response to depolarizing current injections”. The “sociability after LPS” value in experiment [2] was “failed to restore sociability in mutant mice deficient for Cntnap2, Fmr1, and Shank3”. Besides, the “IL-17a in the brain” value in the experiment with IL-17a, IFNγ, IL-6, TNFα (IFNγ KO MIA offspring, LPS treatment) is reported as “no longer detectable”. Further, in the experiment on IL-17a, IFNγ, IL-6, TNFα (MIA offspring injected with LPS, brain lysate), the “IL-17a and IFNγ levels in the brain” value is recorded as “elevated levels of IL-17a, but not IFNγ, in the brain”. Besides, the “plasma levels of IFNγ, IL-6, TNFα and IL-17a” value with IL-17a, IFNγ, IL-6, TNFα (MIA offspring, LPS i.p.) is “increased plasma levels of inflammatory cytokines; also recorded: robust increase in plasma levels of IFNγ, IL-6, TNFα and IL-17a”. The “plasma/blood levels of inflammatory cytokines (IL-17a, IFNγ)” value in the experiment on IL-17a, IFNγ, IL-6, TNFα (PBS (control) offspring, LPS 50 μg/kg i.p.) is “insufficient to produce high levels of inflammatory cytokines; also recorded: failed to increase IL-17a and IFNγ levels in the blood”. Moreover, the “plasma levels of IFN-γ, IL-6, and TNF-α” value in the experiment on IL-17a, IFNγ, IL-6, TNFα (PBS, MIA, WT and monogenic mutant mice (FIG. 23A), four hours after LPS) was “robust increase in plasma levels of IFN-γ, IL-6, and TNF-α”. For the same substance, the “plasma/blood IL-17a, MIA offspring vs monogenic mutant mice and controls” value in the experiment with IL-17a, IFNγ, IL-6, TNFα (four hours after LPS) was “did not induce comparable amounts of interleukin-17a (IL-17a) as in MIA offspring; also recorded: prominently upregulated in MIA offspring, but not in monogenic mutant mice or in control animals; also recorded: increase in IL-17a levels in the blood selectively in MIA offspring, but not in other monogenic mutant mice”.
